US20090233796A1, “HERBICIDAL COMPOSITION” (SYNGENTA CROP PROTECTION, INC., priority 2004, published 2009)

Tests used:
Format in all cases: in vivo
[1] = test system: CYNODON DACTYLON; test: Compound (A) with glyphosate, weed plots; conditions: 82 DAA, No. 2.1
Text: (§1) The compositions were formulated as an emulsifyable concentrate (EC).
(§2) The results in the table under each application are the percentage of the plants that were killed.

[2] = test system: CYPERUS ROTUNDUS; test: Compound (A) with glyphosate, weed plots; conditions: 2 DAA, No. 2.5
Text: as §1, §2

[3] = test system: CYPERUS SP.; test: Compound (A) with glyphosate, weed plots
Text: as §1, §2

[4] = test system: DIGITARIA SANGUINALIS; test: Compound (A) with glyphosate, weed plots; conditions: 52 DAA, No. 2.2
Text: as §1, §2

[5] = test system: HORDEUM PUSILLUM; test: Compound (A) with glyphosate, weed plots; conditions: 13 DAA, No. 2.6
Text: as §1, §2

[6] = test system: STELLARIA MEDIA; test: Compound (A) with triasulfuron, weed plots; conditions: 10 g per hectare; 30 DAA; No. 3.1
Description: In these tests, various weeds were treated with triasulfuron alone at a rate equivalent to 26 g per hectare, Compound (A) alone at a rate equivalent to 10 g per hectare, and to a mixture of triasulfuron and Compound (A) at rates equivalent to the sum of these. The compositions were formulated as an emulsifyable concentrate (EC).
as §2

[7] = test system: AMBROSIA TRIFIDA; test: Compound (A) with nicosulfuron, weed plots; conditions: 28 DAA, No. 3.15
Description: (§3) In these tests, various weeds were treated with nicosulfuron alone at a rate equivalent to 35 g per hectare, […] and Compound (A) at rates equivalent to the sum of these. The compositions were formulated as an emulsifyable concentrate (EC).
as §2

[8] = test system: CYPERUS ESCULENTUS; test: Compound (A) with nicosulfuron, weed plots
Description: as §3, §2

[9] = test system: DIGITARIA SANGUINALIS; test: Compound (A) with nicosulfuron, weed plots
Description: as §3, §2

[10] = test system: SESBANIA EXALTATA; test: Compound (A) with nicosulfuron, weed plots
Description: as §3, §2

[11] = test system: SETARIA SP.; test: Compound (A) with nicosulfuron, weed plots; conditions: 21 DAA, No. 3.4
Description: as §3, §2

[12] = test system: Euphorbia; test: Compound (A) with primisulfuron, weed plots; conditions: 45 DAA, Trial 3.20
Text: In these tests, […] and Compound (A) at rates equivalent to the sum of these. The compositions were formulated as an emulsifiable concentrate (EC).
The results in the tables under each application are the percentage of the plants that were killed.

[13] = test system: AMBROSIA ARTEMISIIFOLIA; test: Compound (A) with S-metolachlor, weed plots
Description: (§4) In these tests, various weeds were treated with S-metolachlor (SMOC) alone at an application rate equivalent to 1420 g per hectare, Compound (A) alone at rates equivalent to 20 g per hectare and […] and with mixtures of S-metolachlor and the Compound (A) at rates equivalent to the sum of these. The compositions were formulated as an emulsifyable concentrate (EC).
as §2

[14] = test system: AMBROSIA TRIFIDA; test: Compound (A) with S-metolachlor, weed plots
Description: as §4, §2

[15] = test system: C[…]; test: Compound (A) with S-metolachlor, weed plots
Description: as §4, §2

[16] = test system: E[…]-GALLI; test: Compound (A) with S-metolachlor, weed plots; conditions: 28 DAA, Trial 4.1
Description: as §4, §2

[17] = test system: IPOMOEA SP.; test: Compound (A) with S-metolachlor, weed plots
Description: as §4, §2

[18] = test system: POLYGONUM PENSYLVANICUM; test: Compound (A) with S-metolachlor, weed plots; conditions: 56 DAA, Trial 4.14
Description: as §4, §2

[19] = test system: SESBANIA EXALTATA; test: Compound (A) with S-metolachlor, weed plots; conditions: 56 DAA, Trial 4.2
Description: as §4, §2

[20] = test system: XANTHIUM STRUMARIUM; test: Compound (A) with S-metolachlor, weed plots
Description: as §4, §2

Compound: CCOC(=O)COc1ncccc1Oc1cc(-n2c(=O)cc(C(F)(F)F)n(C)c2=O)c(F)cc1Cl [Compound (A)]
- percentage of the plants that were killed ([1]; 10 g/ha): 0%
- percentage of the plants that were killed ([1]; 20 g/ha): 0%
- percentage of the plants that were killed ([2]; 10 g/ha): 40%
- percentage of the plants that were killed ([2]; 20 g/ha): 75%
- percentage of the plants that were killed ([3]; 10 g/ha, 1 DAA, No. 2.3): 0%
- percentage of the plants that were killed ([3]; 10 g/ha, 52 DAA, No. 2.4): 0%
- percentage of the plants that were killed ([3]; 20 g/ha, 1 DAA, No. 2.3): 0%
- percentage of the plants that were killed ([3]; 20 g/ha, 52 DAA, No. 2.4): 0%
- percentage of the plants that were killed ([4]; 10 g/ha): 0%
- percentage of the plants that were killed ([4]; 20 g/ha): 0%
- percentage of the plants that were killed ([5]; 10 g/ha): 60%
- percentage of the plants that were killed ([5]; 20 g/ha): 70%
- percentage of the plants that were killed [6]: 63%
- percentage of the plants that were killed ([7]; 5 g/ha): 50%
- percentage of the plants that were killed ([7]; 10 g/ha): 50%
- percentage of the plants that were killed ([7]; 20 g/ha): 60%
- percentage of the plants that were killed ([8]; 5 g/ha, 7 DAA, No. 3.7): 40%
- percentage of the plants that were killed ([8]; 5 g/ha, 12 DAA, No. 3.9): 0%
- percentage of the plants that were killed ([8]; 10 g/ha, 7 DAA, No. 3.7): 60%
- percentage of the plants that were killed ([8]; 10 g/ha, 12 DAA, No. 3.9): 0%
- percentage of the plants that were killed ([8]; 20 g/ha, 7 DAA, No. 3.7): 60%
- percentage of the plants that were killed ([8]; 20 g/ha, 12 DAA, No. 3.9): 30%
- percentage of the plants that were killed ([9]; 5 g/ha, 4 DAA, No. 3.6): 20%
- percentage of the plants that were killed ([9]; 5 g/ha, 5 DAA, No. 3.14): 25%
- percentage of the plants that were killed ([9]; 5 g/ha, 21 DAA, No. 3.5): 50%
- percentage of the plants that were killed ([9]; 10 g/ha, 4 DAA, No. 3.6): 90%
- percentage of the plants that were killed ([9]; 10 g/ha, 5 DAA, No. 3.14): 50%
- percentage of the plants that were killed ([9]; 10 g/ha, 21 DAA, No. 3.5): 80%
- percentage of the plants that were killed ([9]; 20 g/ha, 4 DAA, No. 3.6): 98%
- percentage of the plants that were killed ([9]; 20 g/ha, 5 DAA, No. 3.14): 99%
- percentage of the plants that were killed ([9]; 20 g/ha, 21 DAA, No. 3.5): 93%
- percentage of the plants that were killed ([10]; 5 g/ha, 44 DAA, No. 3.3): 75%
- percentage of the plants that were killed ([10]; 5 g/ha, 45 DAA, No. 3.2): 65%
- percentage of the plants that were killed ([10]; 10 g/ha, 44 DAA, No. 3.3): 85%
- percentage of the plants that were killed ([10]; 10 g/ha, 45 DAA, No. 3.2): 85%
- percentage of the plants that were killed ([10]; 20 g/ha, 44 DAA, No. 3.3): 90%
- percentage of the plants that were killed ([10]; 20 g/ha, 45 DAA, No. 3.2): 90%
- percentage of the plants that were killed ([11]; 5 g/ha): 50%
- percentage of the plants that were killed ([11]; 10 g/ha): 80%
- percentage of the plants that were killed ([11]; 20 g/ha): 93%
- percentage of the plants that were killed ([12]; 1.25 g/ha): 50%
- percentage of the plants that were killed ([12]; 2.5 g/ha): 70%
- percentage of the plants that were killed ([12]; 5 g/ha): 70%
- percentage of the plants that were killed ([13]; 20 g/ha, 25 DAA, Trial 4.7): 47%
- percentage of the plants that were killed ([13]; 20 g/ha, 49 DAA, Trial 4.8): 30%
- percentage of the plants that were killed ([13]; 40 g/ha, 25 DAA, Trial 4.7): 79%
- percentage of the plants that were killed ([13]; 40 g/ha, 49 DAA, Trial 4.8): 69%
- percentage of the plants that were killed ([14]; 20 g/ha, 8 DAA, Trial 4.16): 75%
- percentage of the plants that were killed ([14]; 20 g/ha, 42 DAA, Trial 4.15): 23%
- percentage of the plants that were killed ([14]; 40 g/ha, 8 DAA, Trial 4.16): 95%
- percentage of the plants that were killed ([14]; 40 g/ha, 42 DAA, Trial 4.15): 38%
- percentage of the plants that were killed ([15]; 20 g/ha, 26 DAA, Trial 4.5): 80%
- percentage of the plants that were killed ([15]; 20 g/ha, 54 DAA, Trial 4.6): 0%
- percentage of the plants that were killed ([15]; 20 g/ha, 56 DAA, Trial 4.11): 0%
- percentage of the plants that were killed ([15]; 40 g/ha, 26 DAA, Trial 4.5): 80%
- percentage of the plants that were killed ([15]; 40 g/ha, 54 DAA, Trial 4.6): 44%
- percentage of the plants that were killed ([15]; 40 g/ha, 56 DAA, Trial 4.11): 13%
- percentage of the plants that were killed ([16]; 20 g/ha): 53%
- percentage of the plants that were killed ([16]; 40 g/ha): 55%
- percentage of the plants that were killed ([17]; 20 g/ha, 25 DAA, Trial 4.9): 35%
- percentage of the plants that were killed ([17]; 20 g/ha, 49 DAA, Trial 4.10): 20%
- percentage of the plants that were killed ([17]; 40 g/ha, 25 DAA, Trial 4.9): 65%
- percentage of the plants that were killed ([17]; 40 g/ha, 49 DAA, Trial 4.10): 60%
- percentage of the plants that were killed ([18]; 20 g/ha): 0%
- percentage of the plants that were killed ([18]; 40 g/ha): 13%
- percentage of the plants that were killed ([19]; 20 g/ha): 50%
- percentage of the plants that were killed ([19]; 40 g/ha): 25%
- percentage of the plants that were killed ([20]; 20 g/ha, 26 DAA, Trial 4.17): 25%
- percentage of the plants that were killed ([20]; 20 g/ha, 42 DAA, Trial 4.18): 23%
- percentage of the plants that were killed ([20]; 40 g/ha, 26 DAA, Trial 4.17): 73%
- percentage of the plants that were killed ([20]; 40 g/ha, 42 DAA, Trial 4.18): 68%
